Columns and labels:
[1] = system: antibodies in sera from SARS patients (sera 1a, 1b, 2, 6, 37, 62, London, SARS-yellow, SARS-green); assay type: binding, human; parameters: Binding of serum 6 to linear peptides of protein X1 of SARS-CoV Urbani / Binding of serum 37 to linear peptides of protein X1 of SARS-CoV Urbani / Binding of serum 6 to looped/cyclic peptide (PEPSCAN-ELISA) / Binding of serum 37 to looped/cyclic peptide (PEPSCAN-ELISA) / Binding of serum 37 to looped/cyclic peptides of protein X1 of SARS-CoV Urbani / Binding of serum 6 to linear peptides of protein X2 / Binding of serum 37 to linear peptides of protein X2 / Binding of serum 37 to looped/cyclic peptides of protein X2 of SARS-CoV Urbani / Binding of serum 6 to linear peptides of protein M of SARS-CoV Urbani / Binding of serum 37 to linear peptides of protein M of SARS-CoV Urbani / Binding of serum 6 to looped/cyclic peptides of protein M of SARS-CoV Urbani / Binding of serum 37 to looped/cyclic peptides of protein M of SARS-CoV Urbani / Binding of serum 6 to linear peptides of protein X3 of SARS-CoV Urbani / Binding of serum 37 to linear peptides of protein X3 of SARS-CoV Urbani / Binding of serum 37 to looped/cyclic peptides of protein X3 of SARS-CoV Urbani / Binding of serum 6 to linear peptides of protein X4 of SARS-CoV Urbani / Binding of serum 37 to linear peptides of protein X4 of SARS-CoV Urbani / Binding of serum 37 to looped/cyclic peptides of protein X4 of SARS-CoV Urbani / Binding of serum 6 to linear peptides of protein X5 of SARS-CoV Urbani / Binding of serum 37 to linear peptides of protein X5 of SARS-CoV Urbani / Binding of serum 37 to looped/cyclic peptides of protein X5 of SARS-CoV Urbani / Binding of serum 6 to linear peptides of protein N of SARS-CoV Urbani / Binding of serum 37 to linear peptides of protein N of SARS-CoV Urbani / Binding of serum 6 to linear peptide (PEPSCAN-ELISA) / Binding of serum 1a to looped/cyclic peptides of protein N of SARS-CoV Urbani / Binding of serum 1b to looped/cyclic peptides of protein N of SARS-CoV Urbani / Binding of serum 2 to looped/cyclic peptides of protein N of SARS-CoV Urbani / Binding of serum 6 to looped/cyclic peptides of protein N of SARS-CoV Urbani / Binding of serum 37 to looped/cyclic peptides of protein N of SARS-CoV Urbani / Binding of serum 62 to looped/cyclic peptides of protein N of SARS-CoV Urbani / Binding of serum London to looped/cyclic peptides of protein N of SARS-CoV Urbani / Binding of serum SARS-green to looped/cyclic peptides of protein N of SARS-CoV Urbani: unit not given here
[2] = system: control sera (pooled serum of ten healthy LUMC hospital workers; commercial negative donor pooled serum from the Dutch bloodbank); assay type: binding, human; parameters: Binding of Control serum LUMC to linear peptides / Binding of Control serum Blood-bank to linear peptides / Binding of Control serum LUMC to looped peptides / Binding of Control Serum Blood-Bank to Looped peptides / Binding of Control serum LUMC to linear peptides of the protein M of SARS-CoV Urbani / Binding of Control serum Blood-bank to linear peptides of the protein M of SARS-CoV Urbani / Binding of Control serum LUMC to looped peptides of the protein M of SARS-CoV Urbani / Binding of Control Serum Blood-Bank to Looped peptides of the protein M of SARS-CoV Urbani: unit not given here
[3] = system: rabbit serum obtained by immunizing a rabbit with the SARS-CoV strain Frankfurt 1; assay type: binding; parameters: Binding of a rabbit serum to linear peptides / Binding of a rabbit serum to looped peptides / Rabbit serum linear peptides / Rabbit serum looped peptides / Binding of a rabbit serum to linear peptides of protein N of SARS-CoV Urbani (Rabbit serum linear peptides) / Binding of a rabbit serum to looped/cyclic peptides of protein N of SARS-CoV Urbani (Rabbit serum looped peptides): unit not given here

LVFLWLLWPVTLACF
Binding of serum 1a to linear peptides of protein M of SARS-CoV Urbani [1]: 0.7
Binding of serum 1a to looped/cyclic peptides of protein M of SARS-CoV Urbani [1]: 0.6
Binding of serum 1b to linear peptides of protein M of SARS-CoV Urbani [1]: 0.5
Binding of serum 1b to looped/cyclic peptides of protein M of SARS-CoV Urbani [1]: 0.5
Binding of serum 2 to linear peptides of protein M of SARS-CoV Urbani [1]: 0.4
Binding of serum 2 to looped/cyclic peptides of protein M of SARS-CoV Urbani [1]: 0.7
Binding of serum 6 to linear peptides of protein M of SARS-CoV Urbani [1]: 0.6
Binding of serum 6 to looped/cyclic peptides of protein M of SARS-CoV Urbani [1]: 0.6
Binding of serum 37 to linear peptides of protein M of SARS-CoV Urbani [1]: 0.6
Binding of serum 37 to looped/cyclic peptides of protein M of SARS-CoV Urbani [1]: 0.7
Binding of serum 62 to linear peptides of protein M of SARS-CoV Urbani [1]: 0.8
Binding of serum 62 to looped/cyclic peptides of protein M of SARS-CoV Urbani [1]: 0.7
Binding of serum London to linear peptides of protein M of SARS-CoV Urbani [1]: 0.7
Binding of serum London to looped/cyclic peptides of protein M of SARS-CoV Urbani [1]: 0.2
Binding of serum SARS-green to linear peptides of protein M of SARS-CoV Urbani [1]: 0.2
Binding of serum SARS-green to looped/cyclic peptides of protein M of SARS-CoV Urbani [1]: 0.3
Binding of serum SARS-yellow to linear peptides of protein M of SARS-CoV Urbani [1]: 0.1
Binding of serum SARS-yellow to looped/cyclic peptides of protein M of SARS-CoV Urbani [1]: 0.4
Binding of Control Serum Blood-Bank to Looped peptides of the protein M of SARS-CoV Urbani [2]: 0.7
Binding of Control serum Blood-bank to linear peptides of the protein M of SARS-CoV Urbani [2]: 0.5
Binding of Control serum LUMC to linear peptides of the protein M of SARS-CoV Urbani [2]: 0.2
Binding of Control serum LUMC to looped peptides of the protein M of SARS-CoV Urbani [2]: 0.7
Rabbit serum linear peptides [3]: 0.3
Rabbit serum looped peptides [3]: 0.3

LVIGFLFLAWIMLLQ
Binding of serum 1a to linear peptides of protein M of SARS-CoV Urbani [1]: 0.7
Binding of serum 1a to looped/cyclic peptides of protein M of SARS-CoV Urbani [1]: 0.7
Binding of serum 1b to linear peptides of protein M of SARS-CoV Urbani [1]: 0.5
Binding of serum 1b to looped/cyclic peptides of protein M of SARS-CoV Urbani [1]: 0.6
Binding of serum 2 to linear peptides of protein M of SARS-CoV Urbani [1]: 0.5
Binding of serum 2 to looped/cyclic peptides of protein M of SARS-CoV Urbani [1]: 0.8
Binding of serum 6 to linear peptides of protein M of SARS-CoV Urbani [1]: 0.4
Binding of serum 6 to looped/cyclic peptides of protein M of SARS-CoV Urbani [1]: 0.5
Binding of serum 37 to linear peptides of protein M of SARS-CoV Urbani [1]: 0.4
Binding of serum 37 to looped/cyclic peptides of protein M of SARS-CoV Urbani [1]: 0.7
Binding of serum 62 to linear peptides of protein M of SARS-CoV Urbani [1]: 0.4
Binding of serum 62 to looped/cyclic peptides of protein M of SARS-CoV Urbani [1]: 0.7
Binding of serum London to linear peptides of protein M of SARS-CoV Urbani [1]: 0.3
Binding of serum London to looped/cyclic peptides of protein M of SARS-CoV Urbani [1]: 0.2
Binding of serum SARS-green to linear peptides of protein M of SARS-CoV Urbani [1]: 0.4
Binding of serum SARS-green to looped/cyclic peptides of protein M of SARS-CoV Urbani [1]: 0.3
Binding of serum SARS-yellow to linear peptides of protein M of SARS-CoV Urbani [1]: 0.1
Binding of serum SARS-yellow to looped/cyclic peptides of protein M of SARS-CoV Urbani [1]: 0.7
Binding of Control Serum Blood-Bank to Looped peptides of the protein M of SARS-CoV Urbani [2]: 0.6
Binding of Control serum Blood-bank to linear peptides of the protein M of SARS-CoV Urbani [2]: 0.6
Binding of Control serum LUMC to linear peptides of the protein M of SARS-CoV Urbani [2]: 0.5
Binding of Control serum LUMC to looped peptides of the protein M of SARS-CoV Urbani [2]: 0.7
Rabbit serum linear peptides [3]: 0.1
Rabbit serum looped peptides [3]: 0.3

LVLKMLHSSSLTSLL
Binding of serum 1a to linear peptides of protein X2 [1]: 0.6
Binding of serum 1a to looped/cyclic peptides of protein X2 of SARS-CoV Urbani [1]: 0.6
Binding of serum 1b to linear peptides of protein X2 [1]: 0.4
Binding of serum 1b to looped/cyclic peptides of protein X2 of SARS-CoV Urbani [1]: 0.5
Binding of serum 2 to linear peptides of protein X2 [1]: 0.3
Binding of serum 2 to looped/cyclic peptides of protein X2 of SARS-CoV Urbani [1]: 0.3
Binding of serum 6 to linear peptides of protein X2 [1]: 0.3
Binding of serum 6 to looped/cyclic peptides of protein X2 of SARS-CoV Urbani [1]: 0.4
Binding of serum 37 to linear peptides of protein X2 [1]: 0.4
Binding of serum 37 to looped/cyclic peptides of protein X2 of SARS-CoV Urbani [1]: 0.4
Binding of serum 62 to linear peptides of protein X2 [1]: 0.5
Binding of serum 62 to looped/cyclic peptides of protein X2 of SARS-CoV Urbani [1]: 0.6
Binding of serum London to linear peptides of protein X2 [1]: 0.3
Binding of serum London to looped/cyclic peptides of protein X2 of SARS-CoV Urbani [1]: 0.2
Binding of serum SARS-green to linear peptides of protein X2 [1]: 0.5
Binding of serum SARS-green to looped/cyclic peptides of protein X2 of SARS-CoV Urbani [1]: 0.3
Binding of serum SARS-yellow to linear peptides of protein X2 [1]: 0.4
Binding of serum SARS-yellow to looped/cyclic peptides of protein X2 of SARS-CoV Urbani [1]: 0.4
Binding of Control Serum Blood-Bank to Looped peptides [2]: 0.7
Binding of Control serum Blood-bank to linear peptides [2]: 0.5
Binding of Control serum LUMC to linear peptides [2]: 0.2
Binding of Control serum LUMC to looped peptides [2]: 0.6
Binding of a rabbit serum to linear peptides [3]: 0.3
Binding of a rabbit serum to looped peptides [3]: 0.4
